Source: ChEMBL document CHEMBL6078714, “Discovery of N-Trifluoromethylated Noscapines as Novel and Potent Agents for the Treatment of Glioblastoma” (J Med Chem, 2025)
The source made the active and inactive calls. The calls are words filed in the database; no cut-off is given here.

Legend:
[1] = Stability of compound in sodium phosphate buffer at pH 7.4 measured after 48 hrs by 1H NMR analysis; type: physicochemical; details: pH 7.4, 48 h
[2] = Stability of compound in sodium carbonate buffer at pH 10 measured after 48 hrs by 1H NMR analysis; type: physicochemical; details: pH 10, 48 h
[3] = Stability of compound in 0.1M HCl solution at pH 1.0 assessed as parent compound remaining measured after 48 hrs by 1H NMR analysis; type: physicochemical; details: read-out: Stability
U-87 MG = experiment: Antiproliferative activity against human U-87 MG cells assessed as inhibition of cell proliferation incubated for 72 hrs by CCK8 assay; type: functional, cell-based, U-87MG ATCC
U-118-MG [4] = experiment: Inhibition of cell migration in human U-118-MG cells incubated for 24 hrs by transwell assay; type: functional, cell-based; details: dose 0.1-10 µM
U-118-MG [5] = experiment: Cell cycle arrest in human U-118-MG cells assessed as accumulation of cells at G1 phase at 3 uM incubated for 24 hrs by flow cytometric analysis (reference value: 56.2 %); type: functional
U-118-MG [6] = experiment: Cell cycle arrest in human U-118-MG cells assessed as accumulation of cells at G2 phase at 10 uM incubated for 24 hrs by flow cytometric analysis (reference value: 30.6 %); type: functional
U-118-MG [7] = experiment: Cell cycle arrest in human U-118-MG cells assessed as accumulation of cells at S phase at 20 uM incubated for 24 hrs by flow cytometric analysis (reference value: 10.7 %); type: functional
U-118-MG [8] = experiment: Cell cycle arrest in human U-118-MG cells assessed as accumulation of cells at G1 phase at 30 uM incubated for 24 hrs by flow cytometric analysis (reference value: 56.2 %); type: functional
U-118-MG [9] = experiment: Cell cycle arrest in human U-118-MG cells assessed as accumulation of cells at S phase at 30 uM incubated for 24 hrs by flow cytometric analysis (reference value: 10.7 %); type: functional
Tubulin (Homo sapiens) = Tubulin (Homo sapiens) (UniProt P68371+Q9H4B7+P0DPH7+P68366+Q13509+Q71U36+P04350+Q3ZCM7+P07437+P68363+Q9BQE3+Q6PEY2+Q13885+Q9BVA1+Q9BUF5); experiment: Disruption of tubulin polymerization in human U-118-MG cells at 3 to 20 uM by DAPI staining based immunofluorescence analysis; type: cell-based; details: dose 3-20 µM
[10] = Drug distribution in Sprague-Dawley rat plasma at 5 mg/kg, ip measured after 4 hrs; type: ADME, organism-based
U-118-MG [11] = experiment: Antitumor activity against human U-118-MG cells xenografted in male BALB/c nude mouse assessed as suppression of tumor growth at 2.5 to 10 mg/kg, ip administered daily for 4 weeks; type: functional, organism-based; details: dose 2.5-10 mg/kg
U-118-MG [12] = experiment: Antitumor activity against human U-118-MG cells xenografted in male BALB/c nude mouse assessed as tumor growth inhibition at 5 mg/kg, ip administered daily for 4 weeks relative to control; type: functional; details: 672 h, read-out: TGI
U-118-MG [13] = experiment: Antitumor activity against human U-118-MG cells xenografted in male BALB/c nude mouse assessed as tumor growth inhibition at 10 mg/kg, ip administered daily for 4 weeks relative to control; type: functional; details: 672 h, read-out: TGI
[14] = Toxicity in male BALB/c nude mouse xenografted with human U-118-MG cells assessed as effect on serum AST level at 2.5 to 10 mg/kg, ip administered daily for 4 weeks; type: organism-based; details: in vivo, 672 h, dose 2.5-10 mg/kg

Stability [1]: Stable
Stability [2]: Stable
remaining at 48 h [3]: 86%
IC50 (U-87 MG): 7.46 µM
Activity (Tubulin (Homo sapiens)): Active
concentration at 4 h [10]: 0.0694 µg/mL
Structure (SMILES): COc1ccc2c(c1OC)C(=O)O[C@@H]2[C@H]1c2c(c(Br)c3c(c2OC)OCO3)CCN1C(F)(F)F
inhibition (U-118-MG [4]): Dose-dependent-effect
Activity (U-118-MG [5]): 55.7%
Activity (U-118-MG [6]): 32.1%
Activity (U-118-MG [7]): 9.68%
Activity (U-118-MG [8]): 29.5%
Activity (U-118-MG [9]): 14.8%
Activity (U-118-MG [11]): Active
inhibition in vivo at 5 mg/kg (U-118-MG [12]): 37.7%
inhibition in vivo at 10 mg/kg (U-118-MG [13]): 38.5%
Activity [14]: Non-toxic
